# Patent US20080051597A1, “Process for Producing 2-Methyladamantan-2-Yl (Meth)Acrylate and 2-Methyladamantan-2-Yl (Meth)Acrylate” (Mitsubishi Chemical Corporation, priority 2004, published 2008)
# Experiment: Solubility of methyleneadamantane in organic compound
# Assay type: physicochemical
# Settings: supernatant analysed by gas chromatography
# Procedure: To a predetermined amount of an organic solvent was added 2-methyleneadamantane in such an amount that it remains in the solvent after dissolution. After stirring the mixture while keeping the temperature at 0° C., the resulting mixture was allowed to stand. A supernatant was collected therefrom and its composition was analyzed by gas chromatography.
# The solubility of 2-methyleneadamantane and the amount of 2-methyleneadamantane in the reaction product were measured by gas chromatography analysis described below. • Gas chromatography analyzer: “GC-14B”, product of Shimadzu Corporation • Column: “TC-1”, product of Tokyo Chemical Industry (inner diameter: 0.25 mm, thickness of filler: 0.25 μm, length: 60 m) • Feed port temperature: 150° C. • Detector: FID • Detector temperature: 280° C. • Conditions of column oven: The column oven was retained at 100° C. for 3 minutes, heated to 180° C. at 10° C./min, retained at 180° C. for 5 minutes, heated to 280° C. at 10° C./min, and then retained at 280° C. for 5 minutes.
smiles,measurement,value
"C=C1C2CC3CC(C2)CC1C3 [methyleneadamantane, 2-methyleneadamantane]",solubility of methyleneadamantane in 100 g of n-undecane at 0° C.,101 g
